Assay results: the NIST ThermoML archive (doi:10.1021/je200721d)

Test: xn = mol fraction of the nth substance listed
Conditions: Liquid, Vibrating tube method

CCCCCCCC [octane] + CCCCCC
Conditions | mass density [kg/m3]
342.93 K, 1000 kPa, x2 = 0.5749 | 640.49
342.93 K, 2000 kPa, x2 = 0.5749 | 641.81
342.93 K, 3000 kPa, x2 = 0.5749 | 643.05
342.93 K, 4000 kPa, x2 = 0.5749 | 644.29
342.93 K, 5000 kPa, x2 = 0.5749 | 645.58
342.93 K, 6000 kPa, x2 = 0.5749 | 646.83
342.93 K, 7000 kPa, x2 = 0.5749 | 648.05
342.93 K, 8000 kPa, x2 = 0.5749 | 649.28
342.93 K, 9000 kPa, x2 = 0.5749 | 650.49
342.93 K, 10000 kPa, x2 = 0.5749 | 651.67
342.93 K, 11000 kPa, x2 = 0.5749 | 652.87
342.93 K, 12000 kPa, x2 = 0.5749 | 654.03
342.93 K, 13000 kPa, x2 = 0.5749 | 655.19
342.93 K, 14000 kPa, x2 = 0.5749 | 656.31
342.93 K, 15000 kPa, x2 = 0.5749 | 657.42
342.93 K, 16000 kPa, x2 = 0.5749 | 658.5
342.93 K, 17000 kPa, x2 = 0.5749 | 659.57
342.93 K, 18000 kPa, x2 = 0.5749 | 660.6
342.93 K, 19000 kPa, x2 = 0.5749 | 661.62
342.93 K, 20000 kPa, x2 = 0.5749 | 662.6
342.93 K, 21000 kPa, x2 = 0.5749 | 663.59
342.93 K, 22000 kPa, x2 = 0.5749 | 664.52
342.93 K, 23000 kPa, x2 = 0.5749 | 665.48
342.93 K, 24000 kPa, x2 = 0.5749 | 666.39
342.93 K, 25000 kPa, x2 = 0.5749 | 667.28
342.94 K, 1000 kPa, x2 = 0.2199 | 655.33
342.94 K, 2000 kPa, x2 = 0.2199 | 656.52
342.94 K, 3000 kPa, x2 = 0.2199 | 657.67
342.94 K, 4000 kPa, x2 = 0.2199 | 658.87
342.94 K, 5000 kPa, x2 = 0.2199 | 660.02
342.94 K, 6000 kPa, x2 = 0.2199 | 661.18
342.94 K, 7000 kPa, x2 = 0.2199 | 662.34
342.94 K, 8000 kPa, x2 = 0.2199 | 663.49
342.94 K, 9000 kPa, x2 = 0.2199 | 664.6
342.94 K, 10000 kPa, x2 = 0.2199 | 665.73
342.94 K, 11000 kPa, x2 = 0.2199 | 666.84
342.94 K, 12000 kPa, x2 = 0.2199 | 667.93
342.94 K, 13000 kPa, x2 = 0.2199 | 669.01
342.94 K, 14000 kPa, x2 = 0.2199 | 670.06
342.94 K, 15000 kPa, x2 = 0.2199 | 671.09
342.94 K, 16000 kPa, x2 = 0.2199 | 672.1
342.94 K, 17000 kPa, x2 = 0.2199 | 673.1
342.94 K, 18000 kPa, x2 = 0.2199 | 674.07
342.94 K, 19000 kPa, x2 = 0.2199 | 675.02
342.94 K, 20000 kPa, x2 = 0.2199 | 675.95
342.94 K, 21000 kPa, x2 = 0.2199 | 676.87
342.94 K, 22000 kPa, x2 = 0.2199 | 677.76
342.94 K, 23000 kPa, x2 = 0.2199 | 678.64
342.94 K, 24000 kPa, x2 = 0.2199 | 679.49
342.94 K, 25000 kPa, x2 = 0.2199 | 680.34
342.98 K, 1000 kPa, x2 = 0.9308 | 619.48
342.98 K, 2000 kPa, x2 = 0.9308 | 620.92
342.98 K, 3000 kPa, x2 = 0.9308 | 622.34
342.98 K, 4000 kPa, x2 = 0.9308 | 623.76
342.98 K, 5000 kPa, x2 = 0.9308 | 625.17
342.98 K, 6000 kPa, x2 = 0.9308 | 626.56
342.98 K, 7000 kPa, x2 = 0.9308 | 627.93
342.98 K, 8000 kPa, x2 = 0.9308 | 629.29
342.98 K, 9000 kPa, x2 = 0.9308 | 630.63
342.98 K, 10000 kPa, x2 = 0.9308 | 631.94
342.98 K, 11000 kPa, x2 = 0.9308 | 633.24
342.98 K, 12000 kPa, x2 = 0.9308 | 634.53
342.98 K, 13000 kPa, x2 = 0.9308 | 635.77
342.98 K, 14000 kPa, x2 = 0.9308 | 637.01
342.98 K, 15000 kPa, x2 = 0.9308 | 638.23
342.98 K, 16000 kPa, x2 = 0.9308 | 639.42
342.98 K, 17000 kPa, x2 = 0.9308 | 640.57
342.98 K, 18000 kPa, x2 = 0.9308 | 641.7
342.98 K, 19000 kPa, x2 = 0.9308 | 642.81
342.98 K, 20000 kPa, x2 = 0.9308 | 643.91
342.98 K, 21000 kPa, x2 = 0.9308 | 644.95
342.98 K, 22000 kPa, x2 = 0.9308 | 645.97
342.98 K, 23000 kPa, x2 = 0.9308 | 646.98
342.98 K, 24000 kPa, x2 = 0.9308 | 647.95
342.98 K, 25000 kPa, x2 = 0.9308 | 648.91
342.99 K, 1000 kPa, x2 = 0.1654 | 657.36
342.99 K, 2000 kPa, x2 = 0.1654 | 658.52
342.99 K, 3000 kPa, x2 = 0.1654 | 659.68
342.99 K, 4000 kPa, x2 = 0.1654 | 660.84
342.99 K, 5000 kPa, x2 = 0.1654 | 662.01
342.99 K, 6000 kPa, x2 = 0.1654 | 663.15
342.99 K, 7000 kPa, x2 = 0.1654 | 664.27
342.99 K, 8000 kPa, x2 = 0.1654 | 665.4
342.99 K, 9000 kPa, x2 = 0.1654 | 666.53
342.99 K, 10000 kPa, x2 = 0.1654 | 667.62
342.99 K, 11000 kPa, x2 = 0.1654 | 668.73
342.99 K, 12000 kPa, x2 = 0.1654 | 669.8
342.99 K, 13000 kPa, x2 = 0.1654 | 670.86
342.99 K, 14000 kPa, x2 = 0.1654 | 671.91
342.99 K, 15000 kPa, x2 = 0.1654 | 672.94
342.99 K, 16000 kPa, x2 = 0.1654 | 673.96
342.99 K, 17000 kPa, x2 = 0.1654 | 674.95
342.99 K, 18000 kPa, x2 = 0.1654 | 675.92
